Some test systems named below: MDA-MB-435; MCF7 breast; BT-549 breast; NCI/ADR-RES ovarian.
What all share (assay): inhibition of tumour cell growth, NCI panel, 48 h

“And” between values parts separate entries of the source, which are not always exact repeats. Equal entries are not always repeated.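 Compound exposure: 48 hours, 5 concentrations, 96-well plates. GI50 marks 50% less growth. TGI is the concentration that stops growth completely.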

For `O=C(CCCCN1CCN(CCCCC(=O)Nc2ccccc2C#C/C=C\C#Cc2ccccc2C(F)(F)F)CC1)Nc1ccccc1C#C/C=C\C#Cc1ccccc1C(F)(F)F`, the GI50 in the test with MDA-MB-435 is 11700 nM; in the test on MCF7 breast, 9970 nM; with BT-549 breast it was 8940 nM; with NCI/ADR-RES ovarian, 9640 nM. The TGI in the test on MDA-MB-435 turned out to be 22000 nM; in the test with MCF7 breast it was 23 µM; in the test on BT-549 breast it was 17.4 µM; in the test on NCI/ADR-RES ovarian it was 20 µM.

Take `COc1ccc(-c2cnc(-c3ccncc3-c3cccc(OC)c3)o2)cc1`: the GI50 in the test on MCF7 breast is 113 nM; in the test with BT-549 breast it was 154 nM; in the test with NCI/ADR-RES ovarian, 26.5 nM. The TGI is 12.2 µM in the test on MCF7 breast, 13.9 µM in the test on BT-549 breast and 30.1 µM with NCI/ADR-RES ovarian.

Take `CCN1C(=O)N(CC)C2C1NC(=S)N2/N=C/C=C/c1ccccc1` (centres undefined): the GI50 in the test with MDA-MB-435 is 25.3 nM; in the test with MCF7 breast, 41.8 nM; in the test with BT-549 breast, 225 nM; in the test with NCI/ADR-RES ovarian, 93.5 nM. In addition, the TGI was 66.4 nM with MDA-MB-435, more than 100 µM in the test on MCF7 breast, 13 µM in the test on BT-549 breast and more than 100 µM with NCI/ADR-RES ovarian.

For `CN(C)CCNC(=O)Nc1ccc(N(C)c2ccnc(Nc3ccc(CS(C)(=O)=O)cc3)n2)cc1`, the GI50 in the test with MDA-MB-435, with MCF7 breast, with BT-549 breast and with NCI/ADR-RES ovarian was more than 25000 nM throughout. For the same compound, the TGI was more than 25000 nM with MDA-MB-435, more than 25 µM with MCF7 breast, more than 25 µM with BT-549 breast and more than 25 µM in the test with NCI/ADR-RES ovarian.

For the compound `COC(=O)[C@]12CC[C@@H](C)[C@H](C)[C@@H]1C1=CC[C@@H]3[C@@]4(C)C(C=O)=C[C@@](C)(COS(C)(=O)=O)C4=CC[C@@]3(C)[C@]1(C)CC2`, the GI50 was 177 nM in the test on MDA-MB-435, 265 nM in the test on MCF7 breast, 211 nM with BT-549 breast and 325 nM with NCI/ADR-RES ovarian. The TGI in the test on MDA-MB-435 worked out at 364 nM; in the test on MCF7 breast, 1.37 µM; in the test on BT-549 breast, 0.63 µM; with NCI/ADR-RES ovarian, 1.97 µM.

For the compound `Nc1ncnc2c1c(-c1ccc(Oc3ccccc3)cc1)nn2CC1SSCC1O` (centres undefined), the GI50 with MDA-MB-435 was 121 nM; in the test on MCF7 breast it was 1440 nM; in the test on BT-549 breast, 7110 nM; in the test with NCI/ADR-RES ovarian, 6610 nM. The TGI in the test on MDA-MB-435 was 470 nM; in the test on MCF7 breast, 7.85 µM; in the test with BT-549 breast it was 17.1 µM; in the test with NCI/ADR-RES ovarian it was 17.6 µM.

`C[C@]12CCc3nc(Nc4ccc(O)cc4)sc3C1=CC[C@@H]1[C@@H]2CC[C@]2(C)/C(=N/NC(N)=S)CC[C@@H]12`: the GI50 in the test with MDA-MB-435 is 664 nM; with MCF7 breast, 1150 nM; in the test with BT-549 breast it was 1470 nM; with NCI/ADR-RES ovarian it was 2380 nM. For the same compound, the TGI came out at 2050 nM with MDA-MB-435, 3.01 µM with MCF7 breast, 3.99 µM in the test with BT-549 breast and 7.51 µM in the test with NCI/ADR-RES ovarian.

Take `CCOC(=O)c1cc(C(=O)c2ccc(OC)c(OC)c2)n2c1ccc1ccc3cccnc3c12`: the GI50 was 2250 nM in the test on MCF7 breast, 1940 nM in the test on BT-549 breast and 948 nM in the test with NCI/ADR-RES ovarian. Moreover, the TGI in the test with MCF7 breast, in the test on BT-549 breast and with NCI/ADR-RES ovarian was more than 100 µM throughout.

Turning to `Cn1cc(-c2ccc3ncc(-c4ccc(CC(=O)Nc5cc(C(C)(C)C)nn5C)cc4)cc3c2)cn1`, the GI50 in the test on MDA-MB-435 was 1250 nM; in the test with MCF7 breast it was 1470 nM; with BT-549 breast, 589 nM; in the test on NCI/ADR-RES ovarian, 749 nM. The TGI in the test with MDA-MB-435 is more than 20000 nM; in the test on MCF7 breast, more than 20 µM; in the test with BT-549 breast, 2.78 µM; in the test with NCI/ADR-RES ovarian, 6.77 µM.

In the case of `Oc1cn(-c2ccc(Cl)cc2)nc1-c1n[nH]c(=S)n1-c1ccc(F)cc1`, the GI50 was 4930 nM with MDA-MB-435, 24800 nM with MCF7 breast, 16500 nM in the test with BT-549 breast and 15400 nM in the test with NCI/ADR-RES ovarian. In addition, the TGI in the test on MDA-MB-435 was more than 100000 nM; in the test on MCF7 breast, more than 100 µM; in the test on BT-549 breast, 56.9 µM; in the test on NCI/ADR-RES ovarian, 54.9 µM.

Consider `O=C(Nc1ccc(-n2cc(-c3ccncc3)c(-c3ccc(Cl)c(O)c3)n2)cc1)c1cc(C(F)(F)F)cc(C(F)(F)F)c1`, for which the GI50 with MDA-MB-435 was 4110 nM; in the test with MCF7 breast, 3530 nM; with BT-549 breast, 13300 nM; with NCI/ADR-RES ovarian, 6910 nM. Moreover, the TGI was 80500 nM with MDA-MB-435, 13.8 µM in the test with MCF7 breast, 91.2 µM in the test with BT-549 breast and more than 100 µM in the test on NCI/ADR-RES ovarian.

For the compound `Cc1ccc(C(=O)Nc2ccc(Oc3cc4cnn(C)c4cc3-c3cn[nH]c3)c(F)c2)c(=O)n1-c1ccc(F)cc1`, the GI50 with MDA-MB-435 is 3230 nM; in the test with MCF7 breast, 3200 nM; with BT-549 breast, 7050 nM; with NCI/ADR-RES ovarian, more than 94100 nM. The TGI was more than 100000 nM with MDA-MB-435, more than 100 µM with MCF7 breast, more than 100 µM in the test with BT-549 breast and more than 100 µM in the test on NCI/ADR-RES ovarian.

As to `COc1ccc([C@@]23Oc4cc(OC)cc(OC)c4[C@]2(O)[C@H](O)[C@H](C(=O)N(C)C)[C@H]3c2ccccc2)cc1`, the TGI with MDA-MB-435 is 43.4 nM and 18.8 nM and 150 nM. In the test with NCI/ADR-RES ovarian, the GI50 was 7.7 nM and 56.6 nM; the TGI was 0.442 µM and 0.329 µM and 1.55 µM.

For `S=C(Sc1ccc(Cl)cc1)Sc1ccc(Cl)cc1`, the GI50 in the test with MDA-MB-435 is 1920 nM; with MCF7 breast it was 2380 nM; with BT-549 breast, 1210 nM; in the test on NCI/ADR-RES ovarian it was 2670 nM. Further, the TGI in the test with MDA-MB-435 was determined as 4900 nM; in the test with MCF7 breast, 7.59 µM; with BT-549 breast, 3.16 µM; with NCI/ADR-RES ovarian, 6.58 µM.

On to `OCCNc1nc2ccccc2c2[nH]c3ccccc3c12`, for which the GI50 was 528 nM in the test with MDA-MB-435, 355 nM with MCF7 breast, 1730 nM with BT-549 breast and 738 nM with NCI/ADR-RES ovarian. Besides, the TGI was found to be 1810 nM in the test on MDA-MB-435, 2 µM with MCF7 breast, 6.68 µM with BT-549 breast and 5.18 µM in the test with NCI/ADR-RES ovarian.

With `COc1cc([C@@H]2c3cc4c(cc3[C@H](SC(=N)N)[C@H]3COC(=O)[C@H]23)OCO4)cc(OC)c1OC`, the GI50 in the test on MCF7 breast is 58.6 nM; in the test with BT-549 breast, 2300 nM; in the test with NCI/ADR-RES ovarian, 253 nM. The TGI in the test on MCF7 breast and with NCI/ADR-RES ovarian was more than 100 µM each time.

For `OCc1ccc(-c2ccc(-c3ccc(CO)o3)o2)o1`, the GI50 in the test on MDA-MB-435 was more than 100000 nM; in the test on MCF7 breast it was 16700 nM; in the test with BT-549 breast it was more than 100000 nM; in the test on NCI/ADR-RES ovarian, more than 100000 nM. The TGI in the test with MDA-MB-435 was more than 100000 nM; with MCF7 breast, more than 100 µM; with BT-549 breast it was more than 100 µM; with NCI/ADR-RES ovarian it was more than 100 µM.

These data come from PubChem BioAssay (NCI).
